molecular target: benzodiazepine receptor; experiment: Displacement ability for benzodiazepine receptor (displacement of tritiated diazepam); details: displacement of tritiated diazepam (2 nM), rat cerebral cortex synaptosomal fraction, pH 7.4, 0° C., 20 minutes; read-out: binding for benzodiazepine Ki
Description: The experiment was performed according to the methods described in European Journal of Pharmacology, vol. 51, P. 129 (1978) and Life Science, vol. 20, p. 1201 (1977).
In brief, a crude synaptosomal fraction was isolated from the cerebral cortex of 9 to 10 week-old male Wistar rats and suspended in 50 mM of Tris-hydrochloric acid buffer solution (pH 7.4) containing 120 mM of sodium chloride and 5 mM of potassium chloride.
To the synaptosomal suspension as prepared above were added various concentrations of test compounds and tritiated diazepam (final concentration:2 nM), and the mixture was incubated at 0° C. for 20 minutes. Then the suspension was filtered through Whatman GF/B glass fiber filter. After the filter was washed with the foregoing buffer solution, the radioactivity left on the filter was measured by a liquid scintillation spectrometry.
Specific binding was determined by subtracting binding in the presence of 10^-6 M unlabelled diazepam from total binding.
According to the above experimental method, the affinity of the compounds of the present invention for benzodiazepine receptor is evaluated as an ability to displace tritiated diazepam from the binding site, and is represented as Ki value.

Ki	Compound
12 nM	Cc1ccc(N2N=C3c4ccccc4SCC3CC2=O)cc1 (centres unmarked) [Example 9, 2-(4-methylphenyl)-2,3,4,4a-tetrahydro-5H-(1)benzothiopyrano[4,3-c]pyridazin-3-one]
13 nM	COc1ccc(N2N=C3c4ccccc4SCC3CC2=O)cc1 (centres unmarked) [Example 10, 2-(4-methoxyphenyl)-2,3,4,4a-tetrahydro-5H-(1)benzothiopyrano[4,3-c]pyridazin-3-one]
45 nM	O=C1CC2CSc3ccccc3C2=NN1c1ccc(Br)cc1 (centres unmarked) [Example 13, 2-(4-bromophenyl)-2,3,4,4a-tetrahydro-5H-(1)benzothiopyrano[4,3-c]pyridazin-3-one]

Compound	Ki
O=C1CC2CSc3ccccc3C2=NN1c1ccc(Cl)cc1 (centres unmarked) [Example 1, 2-(4-chlorophenyl)-2,3,4,4a-tetrahydro-5H-(1)benzothiopyrano[4,3-c]pyridazin-3-one]	40 nM

system: not listed separately; experiment: Anti-bicuculline effect (tonic convulsion in mice); type: in vivo, male ddY-strain mice; details: Mus musculus, oral, (+)bicuculline 0.6 mg/kg i.v. 1 hour after test compound, tonic convulsion within 5 minutes
Description: The experiment of anti-bicuculline effect was performed according to the method described in Life Science, vol. 21, p. 1779 (1977).
In brief, groups of 7-14 male ddY-strain mice weighing 20-28 g were used. (+)Bicuculline (0.6 mg/kg) was intraveneously administered 1 hour after the oral adminstration of test compound, and the ED50, 50% effective dose, was determined by observing the existence of tonic convulsion within 5 minutes.

Compound	ED50
O=C1CC2CSc3ccccc3C2=NN1c1ccc(Cl)cc1 (centres unmarked) [Example 1, 2-(4-chlorophenyl)-2,3,4,4a-tetrahydro-5H-(1)benzothiopyrano[4,3-c]pyridazin-3-one]	12.4 mg/kg
O=C1CC2C[S+]([O-])c3ccccc3C2=NN1c1ccc(Cl)cc1 (centres unmarked) [Example 3, 2-(4-chlorophenyl)-2,3,4,4a-tetrahydro-5H-(1)benzothiopyrano[4,3-c]pyridazin-3-one 6-oxide]	4.1 mg/kg
O=C1CC2C[S+]([O-])c3ccc(F)cc3C2=NN1c1ccc(Cl)cc1 (centres unmarked) [Example 19, 2-(4-chlorophenyl)-9-fluoro-2,3,4,4a-tetrahydro-5H-(1)benzothiopyrano[4,3-c]pyridazin-3-one 6-oxide]	10.6 mg/kg
Cc1ccc2c(c1)C1=NN(c3ccc(Cl)cc3)C(=O)CC1C[S+]2[O-] (centres unmarked) [Example 23, 2-(4-chlorophenyl)-9-methyl-2,3,4,4a-tetrahydro-5H-(1)benzothiopyrano[4,3-c]pyridazin-3-one 6-oxide]	40.6 mg/kg
